Experimental findings from US20140213576A1, “NOVEL COMPOUND USEFUL FOR THE TREATMENT OF DEGENERATIVE AND INFLAMMATORY DISEASES” (GALAPAGOS NV, priority 2013, published 2014) are described below.

Test [1] has as its target T1, Recombinant human TYK2 catalytic domain (Homo sapiens, UniProt P29597).
T1 construct: Recombinant human TYK2 catalytic domain (amino acids 871-1187; catalog number 08-147); purchased Carna biosciences 08-147
T1 sequence (P29597 871-1187): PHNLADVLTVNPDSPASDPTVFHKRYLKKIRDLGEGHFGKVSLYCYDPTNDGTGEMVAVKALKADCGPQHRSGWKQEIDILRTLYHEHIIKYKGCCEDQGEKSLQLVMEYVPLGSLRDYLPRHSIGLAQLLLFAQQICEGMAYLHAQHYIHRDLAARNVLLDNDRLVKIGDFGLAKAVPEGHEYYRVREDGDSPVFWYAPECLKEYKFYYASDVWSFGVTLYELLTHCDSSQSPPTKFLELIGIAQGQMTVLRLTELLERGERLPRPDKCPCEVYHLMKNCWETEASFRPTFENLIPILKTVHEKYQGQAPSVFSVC
The experiment in a line: TYK2 inhibition assay (polyGT substrate). The note with it: 0.1 μM ATP, individual determinations, read-out: IC50 against TYK2. It is filed as biochemical. Here is the method: Recombinant human TYK2 catalytic domain (amino acids 871-1187; catalog number 08-147) was purchased from Carna biosciences. 5 ng of TYK2 was incubated with 12.5 μg polyGT substrate (Sigma catalog number P0275) in kinase reaction buffer (25 mM Hepes pH 7.2, 50 mM NaCl, 0.5 mM EDTA, 1 mM DTT, 5 mM MnCl2, 10 mM MgCl2, 0.1% Brij-35, 0.1 μM non-radioactive ATP, 0.125 μCi ^33P-gamma-ATP (GE Healthcare, catalog number AH9968) final concentrations) with or without 5 μL containing test compound or vehicle (DMSO, 1% final concentration), in a total volume of 25 μL, in a polypropylene 96-well plate (Greiner, V-bottom). After 90 min at 30° C., reactions were stopped by adding 25 μL/well of 150 mM phosphoric acid. […] 40 μL/well of Microscint-20 was added, the top of the plates was sealed and readout was performed using the Topcount (Perkin Elmer). Kinase activity was calculated by subtracting counts per min (cpm) obtained in the presence of a positive control inhibitor (10 μM staurosporine) from cpm obtained in the presence of vehicle. The ability of a test compound to inhibit this activity was determined as:
Percentage inhibition=((cpm determined for sample with test compound present−cpm determined for sample with positive control inhibitor) divided by (cpm determined in the presence of vehicle−cpm determined for sample with positive control inhibitor))*100. […]

The test system of test [2] is GM-CSF-induced STAT5 phosphorylation. As to the kind of experiment: Whole blood assay, GM-CSF stimulation, phospho-STAT5 by FACS. It counts as cell-based. The note with it: human whole blood, CD14+ cells, 8 different donors. The protocol:
In addition, a flow cytometry analysis was performed to establish JAK1 over JAK2 compound selectivity ex vivo using human whole blood. Therefore, blood was taken from human volunteers who gave informed consent. Blood was then equilibrated for 30 min at 37° C. under gentle rocking, then aliquoted in Eppendorf tubes. Compound was added at different concentrations and incubated at 37° C. for 30 min under gentle rocking and subsequently stimulated for 20 min at 37° C. under gentle rocking with interleukin 6 (IL-6) for JAK1-dependent pathway stimulation or GM-CSF for JAK2-dependent pathway stimulation. Phospho-STAT1 and phospho-STAT5 were then evaluated using FACS analysis.
For GM-CSF-stimulated increase of Signal Transducers and Activators of Transcription 5 (pSTAT5) phosphorylation in white blood cell, human whole blood, drawn from human volunteers who gave informed consent, is ex vivo treated with compound for 30 min and subsequently stimulated for 20 min with GM-CSF. The increase in phosphorylation of STAT5 by GM-CSF in monocytes is measured using an anti phospho-STAT5 antibody by FACS. […]
Cells are then washed once with 1×PBS and analyzed on a FACSCanto II flow cytometer (BD Biosciences).
50,000 total events are counted and Phospho-STAT5 positive cells are measured after gating on CD14+ cells. […]
A general note: Flow cytometry measures light scatter and fluorescence of single cells or particles in a stream.

pIC50: −log10 of the molar value. Values joined by “and” are separate entries in the source; they are usually repeats but may differ in a detail not shown here. Identical values can stand only once. A value given as a limit tells only on which side of the number the result lay.

In general, pIC50 refers to the negative decadic logarithm of the IC50, by convention in mol/L. For the compound `CCc1cc(C2CN(S(C)(=O)=O)C2)ncc1N(C)c1cc2c(cn1)ncn2C` [Compound 1, [4-Ethyl-6-(1-methanesulfonyl-azetidin-3-yl)-pyridin-3-yl]-methyl-(1-methyl-1H-imidazo[4,5-d]pyridin-6-yl)-amine], the pIC50 in test [1] is 6.07 and 6.34 and 6.33 and 6.31 and 6.12 and 6.00 and 6.30 and 6.16; in test [2], under 4.65.
